In patent US20250064844A1 (Emory University, priority 2020, published 2025):
Where two headings read alike, the source gives them in different places.

Columns and labels:
[1] = cynomolgus monkey, in vivo, po; for AUC0->24h / CL / Cmax / Tmax / t1/2: 0.4 mmol/kg
[2] = in vitro; conditions: male, CD-1, mouse, microsomes, pH 7.4
[3] = in vitro; conditions: male, CD-1, mouse, plasma
[4] = in vitro; conditions: both, human, plasma
[5] = in vitro; conditions: monkey, plasma
[6] = tested on: Huh-7 cells
[7] = tested on: HepG2 cells
[8] = in vitro; conditions: male, Sprague-Dawley, rat, plasma
[9] = human, in vivo
[10] = tested on: Vero cells
[11] = tested on: CEM cells
[12] = in vitro; conditions: dog, plasma
[13] = in vivo; conditions: ICR (CD-1), mouse, 15 mg/kg
[14] = in vitro; conditions: both, human, microsomes, pH 7.4
[15] = in vitro; conditions: monkey, microsomes, pH 7.4

For `CC(C)C(=O)OC[C@H]1O[C@@H](n2ccc(NO)nc2=O)[C@H](OC(=O)C(C)C)[C@@H]1OC(=O)C(C)C` [EIDD-2800], the “F*” value ([1]; female) was about 16%, the “F*” value ([1]; male) was about 27% and the half-life [2] was under 1 min. It also gave a half-life at 1 μM [3] of 1 min, a half-life at 1 μM [4] of 1 min and a half-life at 1 μM [5] of 2 min.
In the case of `CC(C)C(=O)OC[C@H]1O[C@@H](n2ccc(NO)nc2=O)[C@H](O)[C@@H]1O` [EIDD-2801], the “F*” value ([1]; female) is reported as about 26%, the “F*” value ([1]; male) is reported as about 22% and the half-life at 1 μM [3] is reported as 1 min. The half-life at 1 μM [4] was 63 min, the “AUC0−>t” value [6] was 1025 pmol · h/M cells and the Cmax [6] was 77.5 pmol/M Cells. For the same compound, the “AUC0−>t” value [7] was 360.3 pmol · h/M cells, the Cmax [7] was 18.9 pmol/M Cells and the half-life at 1 μM [8] was 1 min. The hematological parameters [9] was “no clinically significant changes in hematological parameters”, the “AUC0−>t” value [10] was 1724 pmol · h/M cells and the Cmax [10] was 121.2 pmol/M Cells. The “AUC0−>t” value [11] was 85.3 pmol · h/M cells, the Cmax [11] was 5.4 pmol/M Cells and the half-life at 1 μM [12] was 192 min. For the same compound, the half-life at 1 μM [5] was 24 min.
For `CC(C)[C@H](N)C(=O)OC[C@H]1O[C@@H](n2ccc(NO)nc2=O)[C@H](O)[C@@H]1O` [EIDD-2898], the “F*” value ([1]; female) was about 15%, the “AUC0->24h” value ([1]; female) was 26.9 ± 4.8 µM·h and the CL ([1]; female) was 265 ± 53.3 mL/min/kg. It also gave a Cmax ([1]; female) of 15.9 ± 8.1 µM, a Tmax ([1]; female) of 78 ± 30 min and a t1/2 ([1]; female) of 33 ± 15 min. The “F*” value ([1]; male) was about 18%, the “AUC0->24h” value ([1]; male) was 26.1 ± 5.2 µM·h and the CL ([1]; male) was 273 ± 51.7 mL/min/kg. For the same compound, the Cmax ([1]; male) was 9.1 ± 2.7 µM, the Tmax ([1]; male) was 138 ± 57.6 min and the t1/2 ([1]; male) was 31.8 ± 9.6 min. For the same compound, the half-life at 1 μM [3] was 144 min, the half-life at 1 μM [4] was 198 min and the AUC(0-inf) [13] was 8.23 µM·h. For the same compound, the Cmax [13] was 23.1 µM, the Tmax [13] was 4.8 min and the half-life [13] was 20.4 min. For the same compound, the half-life [14] was 14 min, the half-life [15] was 13 min and the half-life at 1 μM [5] was 138 min.
